This note sets out measurements from article PMC9886975, “Ligand recognition mechanism of the human relaxin family peptide receptor 4 (RXFP4)” (Nature Communications, 2023).

“And” between values parts separate entries of the source, which are not always exact repeats. Equal entries are not always repeated. Where two headings read alike, the source gives them in different places.

The target of assay [1] is T1, human RXFP4 (Homo sapiens, UniProt Q8TDU9).
T1 construct: expressed in transfected cells
T1 sequence (Q8TDU9 whole entry): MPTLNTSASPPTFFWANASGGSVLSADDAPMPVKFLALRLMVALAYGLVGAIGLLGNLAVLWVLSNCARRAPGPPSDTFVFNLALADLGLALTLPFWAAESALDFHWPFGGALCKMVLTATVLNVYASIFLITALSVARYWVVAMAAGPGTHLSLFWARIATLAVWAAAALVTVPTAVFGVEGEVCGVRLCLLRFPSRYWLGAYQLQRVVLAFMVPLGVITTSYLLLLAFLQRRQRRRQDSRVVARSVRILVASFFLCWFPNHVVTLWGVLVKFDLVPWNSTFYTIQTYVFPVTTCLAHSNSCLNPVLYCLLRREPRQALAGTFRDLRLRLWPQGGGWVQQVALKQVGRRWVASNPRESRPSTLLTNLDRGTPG
The assay can be described thus: competitive Eu-R3/I5 binding, RXFP4. On the procedure:
CHO-K1 cells stably transfected with RXFP3 or RXFP4 were plated onto pre-coated poly-L-lysine 96-well plates. The competitive binding assays were performed with 5 nM Eu-H3 B1-22R (RXFP3) or Eu-R3/I5 (RXFP4) in the presence of increasing amounts of ligands as previously described[21],[86],[87]. Time-resolved fluorescence measurements were carried out at an excitation wavelength of 340 nm and an emission wavelength of 614 nm on a BMG POLARstar plate reader (BMG Labtech, Melbourne, Australia). Binding was performed in at least three independent experiments with triplicate determinations within each assay. Data are presented as means ± S.E.M. of specific binding and were fitted using a one-site binding curve in Prism software (GraphPad).
All functional study data were analyzed using GraphPad Prism 8.3 (GraphPad Software) and presented as means ± S.E.M. from at least three independent experiments. Dose-response curves were evaluated with a three-parameter logistic equation. The significance was determined with either a two-tailed Student’s t-test or one-way ANOVA with Dunnett’s multiple comparison test, and P < 0.05 was considered statistically significant.

Assay [2] concerns the target T2, RXFP4 H299A (Homo sapiens, UniProt Q8TDU9, H299A).
T2 construct: RXFP4(1-374)-; expressed in transfected cells; host or cells: HEK293T, transient (pCMV6)
The experiment in a line: cAMP accumulation, RXFP4 H299A. It counts as cell-based. The source says: (§1) The full-length human RXFP4 (NCBI Reference Sequence: NM_181885.3) was cloned into a modified pFastBac vector (Invitrogen) with HA signal peptide to enhance receptor expression, followed by a 10× histidine tag and BRIL insertion at the N terminus. LgBiT subunit (Promega) was fused at the C terminus of RXFP4 connected by a 15-amino acid polypeptide linker. […] The engineered human Gαi2, Gβ1, bovine Gγ2, and scFv16 were cloned into the pFastBac vector (Invitrogen), respectively. For cAMP accumulation assay, human RXFP4 and RXFP3 (NCBI Reference Sequence: NM_016568.3) were cloned into pCMV6 constructs (OriGene Technologies). The mutant receptors were modified by site-directed mutagenesis in the setting of the WT constructs, with the primers designed by QuikChange Primer Design [QuickChange Primer Design (http://agilent.com.cn)] and carried out using Phanta Max Master (Vazyme). N-terminal Flag tag was added to both WT and mutant receptors for surface expression measurement. Sequences of all primers used in this study were provided in Supplementary Table 6, and all the constructs were confirmed by DNA sequencing.
(§2) CHO-K1 (ATCC, Cat#CCL-61) cells stably expressing human RXFP4 (hRXFP4-CHO) or RXFP3 (hRXFP3-CHO) were maintained in DMEM/F12 (Gibco) supplemented with 10% (v/v) fetal bovine serum (FBS) and 2 mM L-glutamine. Human embryonic kidney 293 T cells containing SV40 large T-antigen (HEK293T, ATCC, Cat#64127316) were maintained in DMEM (Gibco) supplemented with 10% (v/v) FBS, 1 mM sodium pyruvate (Gibco), 100 units/mL penicillin and 100 μg/mL streptomycin at 37 °C in 5% CO2. For cAMP assays in mutants, HEK293T cells were seeded onto 6-well cell culture plates at a density of 7 × 10^5 cells per well. After overnight incubation, cells were transfected with WT or mutant receptors using Lipofectamine 3000 transfection reagent (Invitrogen). Following 24 h culturing, the transfected cells were ready for detection.
(§3) Ligands were verified for their bioactivity in the beginning in hRXFP4-CHO, which were ready for use after 24 h culturing. For assaying mutants, HEK293T cells were used 24 h post transfection. Cells were digested with 0.02% (w/v) EDTA and seeded onto 384-well microtiter plates at a density of 8 × 10^5 cells/mL in cAMP stimulation buffer [HBSS supplemented with 5 mM HEPES, 0.1% (w/v) bovine serum albumin (BSA) and 0.5 mM 3-isobutyl-1-methylxanthine]. The cells were stimulated with different concentrations of ligands plus 1.5 μM forskolin in RXFP4 and 4 μM forskolin in RXFP3. […] The time-resolved fluorescence resonance energy transfer (TR-FRET) signals were detected by an EnVision multilabel plate reader (PerkinElmer) with the emission window ratio of 665 nm over 620 nm under 320 nm excitation. […]
(§4) Inhibition of forskolin-induced cAMP accumulation was performed in HEK293T cells transiently transfected with WT and mutant receptors. All the mutant constructs were modified by single-point mutation in the setting of the WT receptor. cAMP accumulation data were analyzed using a three-parameter logistic equation to determine pEC50 and Emax values. Emax values for mutants are defined as the window between the maximal response and vehicle control (no ligand) and expressed as a percentage of the WT. Cell surface expression was assessed by flow cytometry to detect the N-terminal Flag epitope label on the receptors and normalized to the WT receptor (shown as percentage). […]

The target in assay [3] is T3, RXFP4 R194A (Homo sapiens, UniProt Q8TDU9, R194A).
T3 construct: RXFP4(1-374)-; expressed in transfected cells; host or cells: HEK293T, transient (pCMV6)
T3 sequence (Q8TDU9 whole entry R194A): as the sequence (Q8TDU9 whole entry) above, with R194A counted along it
The experiment in a line: cAMP accumulation, RXFP4 R194A. The class given is cell-based.
Text: as §1, §2, §3, §4

Assay [4] concerns the target T4, RXFP4 WT (Homo sapiens, UniProt Q8TDU9).
T4 construct: RXFP4(1-374)-; expressed in transfected cells; host or cells: HEK293T, transient (pCMV6)
The assay can be described thus: cAMP accumulation, WT RXFP4 (HEK293T). It counts as cell-based. The note with it: 1.5 μM forskolin, mean ± S.E.M.; for EC50: 40 min RT, TR-FRET, n = 6 to 8.
Text: as §1
as §2, with “After overnight incubation, cells were transfected with WT or mutant receptors using Lipofectamine 3000 transfection reagent (Invitrogen).” left out
(§5) Ligands were verified for their bioactivity in the beginning in hRXFP4-CHO, which were ready for use after 24 h culturing. […] The time-resolved fluorescence resonance energy transfer (TR-FRET) signals were detected by an EnVision multilabel plate reader (PerkinElmer) with the emission window ratio of 665 nm over 620 nm under 320 nm excitation. […]
as §4

Assay [5] has as its target T5, RXFP4 F105A (Homo sapiens, UniProt Q8TDU9, F105A).
T5 construct: RXFP4(1-374)-; expressed in transfected cells; host or cells: HEK293T, transient (pCMV6)
The assay can be described thus: cAMP accumulation, RXFP4 F105A. It counts as cell-based.
Text: as §1, §2, §3, §4

For assay [6], the target named is T6, RXFP4 L118S+V122S (Homo sapiens, UniProt Q8TDU9, L118S/V122S).
T6 construct: RXFP4(1-374)-; expressed in transfected cells; host or cells: HEK293T, transient (pCMV6)
T6 sequence (Q8TDU9 whole entry L118S/V122S): as the sequence (Q8TDU9 whole entry) above, with L118S, V122S counted along it
The experiment in a line: cAMP accumulation, RXFP4 L118S+V122S. The class given is cell-based. The following applies: HEK293T.
Text: as §1
as §2, with “After overnight incubation, cells were transfected with WT or mutant receptors using Lipofectamine 3000 transfection reagent (Invitrogen).” left out
as §5, §4
(In general: Changes in cAMP serve as a functional read-out for many G protein-coupled receptors.)

The target of assay [7] is T7, RXFP4 W97A (Homo sapiens, UniProt Q8TDU9, W97A).
T7 construct: RXFP4(1-374)-; expressed in transfected cells; host or cells: HEK293T, transient (pCMV6)
T7 sequence (Q8TDU9 whole entry W97A): as the sequence (Q8TDU9 whole entry) above, with W97A counted along it
The assay can be described thus: cAMP accumulation, RXFP4 W97A. It counts as cell-based.
Text: as §1, §2, §3, §4

Assay [8] has as its target T8, RXFP4 K273A (Homo sapiens, UniProt Q8TDU9, K273A).
T8 construct: RXFP4(1-374)-; expressed in transfected cells; host or cells: HEK293T, transient (pCMV6)
The assay can be described thus: cAMP accumulation, RXFP4 K273A. It counts as cell-based.
Text: as §1
as §2, with “After overnight incubation, cells were transfected with WT or mutant receptors using Lipofectamine 3000 transfection reagent (Invitrogen).” left out
as §5, §4

The target of assay [9] is T9, RXFP4 T295V (Homo sapiens, UniProt Q8TDU9, T295V).
T9 construct: RXFP4(1-374)-; expressed in transfected cells; host or cells: HEK293T, transient (pCMV6)
T9 sequence (Q8TDU9 whole entry T295V): as the sequence (Q8TDU9 whole entry) above, with T295V counted along it
The assay can be described thus: cAMP accumulation, RXFP4 T295V. The class given is cell-based.
Text: as §1
as §2, with “After overnight incubation, cells were transfected with WT or mutant receptors using Lipofectamine 3000 transfection reagent (Invitrogen).” left out
as §5, §4

Setting [10] is: HEK293T, 1.5 μM forskolin, mean ± S.E.M., n = 3, N.A., not active, read-out: pEC50 (converted).
Setting [11] is: HEK293T, 1.5 μM forskolin, mean ± S.E.M., n = 3, read-out: pEC50 (converted).

T4 sequence (Q8TDU9 whole entry): as the sequence (Q8TDU9 whole entry) above
T5 sequence (Q8TDU9 whole entry F105A): as the sequence (Q8TDU9 whole entry) above, with F105A counted along it
T8 sequence (Q8TDU9 whole entry K273A): as the sequence (Q8TDU9 whole entry) above, with K273A counted along it
T2 sequence (Q8TDU9 whole entry H299A): as the sequence (Q8TDU9 whole entry) above, with H299A counted along it

As to `CCOc1cc2c(cc1OC)CCN(C(=O)N1CCOCC1)[C@H]2CCc1c[nH]c2ccc(OC)cc12` [DC591053, (S)-(7-ethoxy-6-methoxy-1-(2-(5-methoxy-1H-indol-3-yl)ethyl)−3,4-dihydroisoquinolin-2(1H)-yl)(morpholino)methanone], the Ki in assay [1] (stably-transfected CHO-K1, 5 nM Eu-R3/I5, mean ± S.E.M., n = 3, read-out: pKi (converted)) was 112 nM. Moreover, in assay [2] (HEK293T), the “reduction of Emax vs WT” value is on record as 65%. Also, the EC50 in [2] (setting [10]) was 3.63 nM; in assay [3] (setting [11]), 282 nM; in assay [4] (HEK293T, read-out: pEC50 (converted)), 34.7 nM; in [5] (setting [11]) it was 170 nM; in assay [6] (1.5 μM forskolin, mean ± S.E.M., n = 3, N.A., not active) it was 724 nM; in assay [7] (setting [10]), 56.2 nM. In addition, the EC50 in assay [8] (HEK293T, 1.5 μM forskolin, mean ± S.E.M., n = 3 or 4, read-out: pEC50 (converted)) is 1860 nM; in [9] (HEK293T, 1.5 μM forskolin, mean ± S.E.M., n = 3 to 5, read-out: pEC50 (converted)) it was 64.6 nM. In addition, the Emax in assay [2] (HEK293T, mean ± S.E.M.) came out at 36.04 ± 4.01 % WT; in [3] (HEK293T, mean ± S.E.M.), 81.10 ± 7.60 % WT; in assay [4] (HEK293T), 97.18 ± 3.11 % WT; in [5] (HEK293T, mean ± S.E.M.), 57.39 ± 4.17 % WT; in assay [6] (mean ± S.E.M.), 84.85 ± 8.36 % WT; in assay [7] (HEK293T, mean ± S.E.M.), 108.65 ± 10.04 % WT. Moreover, the Emax worked out at 68.51 ± 8.34 % WT in [8] (HEK293T, mean ± S.E.M.) and 30.00 ± 4.54 % WT in assay [9] (HEK293T, mean ± S.E.M.). Moreover, the “decrease of potency vs WT” value in assay [3] (HEK293T) turned out to be 8.1 fold; in [5] (HEK293T), 4.9 fold; in [6], 20.9 fold; in assay [7] (HEK293T) it was 1.6 fold.
For `CC[C@H](C)[C@@H]1NC(=O)[C@H](Cc2ccc(O)cc2)NC(=O)[C@H]([C@@H](C)CC)NC(=O)[C@H](C(C)C)NC(=O)[C@H]([C@@H](C)O)NC(=O)[C@H](CCCNC(=N)N)NC(=O)[C@H]([C@@H](C)CC)NC(=O)[C@H](Cc2ccc(O)cc2)NC(=O)[C@H](CCC(=O)O)NC(=O)[C@H](CC(C)C)NC(=O)CNC(=O)[C@@H](NC(=O)[C@H](CC(C)C)NC(=O)[C@H](CCCNC(=N)N)NC(=O)[C@@H](NC(=O)[C@H](CO)NC(=O)[C@H](CCC(=O)O)NC(=O)[C@@H](N)CCCCN)C(C)C)CSSC[C@@H]2NC(=O)[C@@H](NC(=O)[C@H](CC(C)C)NC(=O)[C@@H](NC(=O)[C@H](CCC(N)=O)NC(=O)[C@H](CC(C)C)NC(=O)[C@H](CC(=O)O)NC(=O)[C@@H](N)CCC(N)=O)[C@@H](C)O)CSSC[C@H](NC(=O)CNC(=O)[C@H](CC(=O)O)NC(=O)[C@H]([C@@H](C)O)NC2=O)C(=O)N[C@@H](CO)C(=O)N[C@@H](CCSC)C(=O)N[C@@H]([C@@H](C)O)C(=O)N[C@@H](CC(=O)O)C(=O)N[C@@H](CC(C)C)C(=O)N[C@@H](CO)C(=O)N[C@@H](C)C(=O)N[C@@H](CC(C)C)C(=O)N[C@H](C(=O)O)CSSC[C@@H](C(=O)N[C@@H](C)C(=O)N[C@@H](CO)C(=O)N[C@@H](CO)C(=O)N[C@@H](CCCNC(=N)N)C(=O)N[C@@H](Cc2c[nH]c3ccccc23)C(=O)O)NC1=O` [INSL5, insulin-like peptide 5], in assay [1], the Ki was 6.46 nM. Also, the EC50 in [2] was 0.955 nM; in assay [3], 1.66 nM; in assay [4] (pEC50, HEK293T), 0.759 nM and 0.955 nM; in [5], 10 nM; in assay [7], 15.5 nM; in assay [8] it was 3.55 nM. The compound also showed an EC50 in assay [9] of 0.692 nM. Besides, the Emax is 30.77 ± 3.77 % WT in assay [2] (HEK293T, mean ± S.E.M.); 79.76 ± 6.06 % WT in assay [3] (HEK293T, mean ± S.E.M.); 99.88 ± 2.28 % WT and 98.86 ± 3.65 % WT in assay [4] (HEK293T); 80.16 ± 4.08 % WT in assay [5] (HEK293T, mean ± S.E.M.); 61.33 ± 5.34 % WT in assay [7] (HEK293T, mean ± S.E.M.); 58.10 ± 7.38 % WT in assay [8] (HEK293T, mean ± S.E.M.). Besides, in [9] (HEK293T, mean ± S.E.M.), the Emax was determined as 91.17 ± 6.47 % WT. The “response” value in assay [6] is “inactive”.
